Activity calls are given as the source filed them. The rule behind the calls is not given here.
Biological target: Influenza A virus M2 proton channel (A/TW/4845/1999 H1N1)
Assay: M2 proton channel binding, NMR based, influenza A virus H1N1 strain (AID 1549)
Details: NMR binding screen, M2 protein

With `NC(=O)Cn1nc(-c2ccco2)ccc1=O` the Kd was > 4 mM (inactive).

In the case of `CN(c1ccccc1C(=O)N1CCOCC1)S(C)(=O)=O`, the Kd is reported as > 4 mM (inactive).

With `N#CCN1C(=O)c2ccccc2S1(=O)=O` the Kd was > 4 mM (inactive).

With `CNC(=O)C(=O)Nc1cccc(Cl)c1` the Kd was > 4 mM (inactive).

`CC(=O)Nc1sccc1C(=O)NC(N)=O` was tested, and the Kd was > 4 mM (inactive).

For `N#Cc1cc(-c2ccccc2)oc1N`, the Kd was > 4 mM (inactive).

With `CC(=O)O[C@@H]1CC2C(C)(C)C(=O)C=C[C@]2(C)C2CC[C@@]3(C)[C@H](c4ccoc4)OC(=O)[C@H]4O[C@]43[C@@]21C` (stereo not given in full) the Kd was > 4 mM (inactive).

`CN(C)C(=S)Nc1ccc([N+](=O)[O-])cc1` was tested, and the Kd was > 4 mM (inactive).

With `CNC[C@@H](O)c1ccc(O)c(O)c1` the Kd was > 4 mM (inactive).

In the case of `O=C(c1ccncc1)c1ccc(Br)cc1`, the Kd is reported as > 4 mM (inactive).

`CCOc1ccc(-c2n[nH]c(=S)n2C)cc1` was tested, and the Kd was > 4 mM (inactive).

`COc1ccc2[nH]cc(CCNC(C)=O)c2c1` was tested, and the Kd was > 4 mM (inactive).

`O=C(c1ccc(F)cc1)N1CCN(c2ncccn2)CC1` was tested, and the Kd was > 4 mM (inactive).

With `Cc1cc(C)n(-c2ccc(Cl)nn2)n1` the Kd was > 4 mM (inactive).

With `S=C1NC(=S)NC(c2ccc3c(c2)OCO3)N1` the Kd was > 4 mM (inactive).

For `Cc1cc(C(=O)Nn2cnnc2)cs1`, the Kd was > 4 mM (inactive).

With `COc1ccc(Cl)cc1NC(=O)c1ccco1` the Kd was > 4 mM (inactive).

`O=C1CS/C(=N/N=C2CCCC2)N1` was tested, and the Kd was > 4 mM (inactive).

For `NC(=O)NC1C=CS(=O)(=O)C1` (stereo not given), the Kd was > 4 mM (inactive).

With `O=c1c(-c2cccs2)[n+]([O-])c2ccccc2n1O` the Kd was > 4 mM (inactive).

In the case of `C/C=C/C=N/NC(=O)c1ccc(=O)n(C)c1`, the Kd is reported as > 4 mM (inactive).

With `Cc1cc(C(=O)NCc2cccs2)cs1` the Kd was > 4 mM (inactive).

For `O=C(NCCO)c1cc2ccccc2c(=O)s1`, the Kd was > 4 mM (inactive).

With `O=c1[nH]c(NCCO)nnc1Cc1ccccc1` the Kd was > 4 mM (inactive).

With `CN=C(C)c1c(O)n(C)c(=O)n(C)c1=O` the Kd was > 4 mM (inactive).

For `c1ccc(C[N+]23CCN(CC2)c2ccccc23)cc1`, the Kd was > 4 mM (inactive).

For `CC1(C)C2C[C@@H](O)[C@]3(C)C(CC[C@@]4(C)[C@H](c5ccoc5)OC(=O)[C@H]5O[C@]543)[C@@]2(C)[C@@H](O)C[C@H]1O` (stereo not given in full), the Kd was > 4 mM (inactive).

`CC(=O)c1cccc(NC(=O)N2CCc3ccccc3C2)c1` was tested, and the Kd was > 4 mM (inactive).

In the case of `CCOC(=O)CC1Sc2ccccc2NC1=O` (stereo not given), the Kd is reported as > 4 mM (inactive).

In the case of `CC(=O)Nc1cccc(Cn2cccn2)c1`, the Kd is reported as > 4 mM (inactive).

For `COc1ccc(C(C)=O)c(O)c1`, the Kd was > 4 mM (inactive).

`C=C(C)[C@@H]1[C@H]2OC(=O)[C@@H]1[C@]1(O)C[C@H]3O[C@]34C(=O)O[C@H]2[C@]14C` was tested, and the Kd was > 4 mM (inactive).

With `c1ccc(-c2nc3ccccc3nc2-c2ccccn2)nc1` the Kd was > 4 mM (inactive).

For `Cc1ccc(C)c(C(=O)NCc2ccncc2)c1`, the Kd was > 4 mM (inactive).

For `O=c1/c(=C/c2ccccc2F)sc2ncnn12`, the Kd was > 4 mM (inactive).

With `CC1(C)C[C@@H]2C(=O)CC[C@H]3O[C@]3(C)CC[C@H]21` the Kd was > 4 mM (inactive).

In the case of `CN1CCN(c2ccc(CN)cc2)CC1`, the Kd is reported as > 4 mM (inactive).

For `CN(C)c1ccc(NC(=O)CC(C(=O)O)N(C)C)cc1` (stereo not given), the Kd was > 4 mM (inactive).

For `Cc1nn2c(-c3ccco3)nnc2c2ccccc12`, the Kd was > 4 mM (inactive).

For `CN(C(=O)c1cc2cccnc2n(C)c1=O)c1ccccc1`, the Kd was > 4 mM (inactive).

With `CC(=O)NC(=S)Nc1ccc(S(N)(=O)=O)cc1` the Kd was > 4 mM (inactive).

For `Cc1cc(N2C(=O)CCC2=O)n(-c2ccccc2)n1`, the Kd was > 4 mM (inactive).

With `CC(=O)OCC(OC(C)=O)C(OC(C)=O)C(OC(C)=O)C(OC(C)=O)C(COC(C)=O)OC(C)=O` (stereo not given) the Kd was > 4 mM (inactive).

For `Cc1cc(C)cc(OC(=O)N2CCOCC2)c1`, the Kd was > 4 mM (inactive).

With `O=S1(=O)CCC(N2CCCCC2)C1` (stereo not given) the Kd was > 4 mM (inactive).

In the case of `CC(=O)NC(NC(C)=O)c1ccccc1`, the Kd is reported as > 4 mM (inactive).

In the case of `Cc1ccc(C(=O)CS(C)(=O)=O)cc1`, the Kd is reported as > 4 mM (inactive).

In the case of `C=CCCCCCCCCCCCC(O)CC(O)COC(C)=O` (stereo not given), the Kd is reported as > 4 mM (inactive).

With `COC(=O)c1cccnc1Oc1ccccc1` the Kd was > 4 mM (inactive).

In the case of `CCc1c(C(=O)Nc2ccncc2)csc1C`, the Kd is reported as > 4 mM (inactive).

`O=C(Nc1ccon1)c1cccc(Cl)c1` was tested, and the Kd was > 4 mM (inactive).

With `CC(=O)Nc1ccc2c(C)cc(=O)[nH]c2c1` the Kd was > 4 mM (inactive).

`Cc1ccc(N2C(=O)C3C4C=CC(O4)C3C2=O)cc1` (stereo not given) was tested, and the Kd was > 4 mM (inactive).

With `CCN(CC)c1nc2n(c(=O)n1)CCO2` the Kd was > 4 mM (inactive).

For `CC1(C)C(=O)[C@@H]2C[C@@]3(O)C4=CC(=O)O[C@@H](c5ccoc5)[C@]4(C)CCC3C(C)(C2=O)[C@H]1CC(=O)O` (stereo not given in full), the Kd was > 4 mM (inactive).

With `O=C1CN(C(=O)c2ccccc2)c2ccccc2N1` the Kd was > 4 mM (inactive).

In the case of `Nc1cccc(-n2cccc2)c1`, the Kd is reported as > 4 mM (inactive).

With `CC1(C)Cc2cccc(CO)c2O1` the Kd was > 4 mM (inactive).

For `O=C(Nc1ccc2c(c1)OCCO2)c1c(F)cccc1F`, the Kd was > 4 mM (inactive).

With `O=C(Cc1c(F)cccc1Cl)Nc1cccnc1` the Kd was > 4 mM (inactive).

`O=C1C(=O)N(CN2CCN(CCO)CC2)c2ccccc21` was tested, and the Kd was > 4 mM (inactive).

With `Nc1nnc(SCc2ccc(F)cc2Cl)s1` the Kd was > 4 mM (inactive).

For `CN1C(=O)c2ccc(C(=O)NCc3ccccc3)cc2C1=O`, the Kd was > 4 mM (inactive).

With `O=C(NCc1ccc2c(c1)OCO2)c1cccs1` the Kd was > 4 mM (inactive).

With `O=C(c1ccccc1-c1ccccc1)N1CCOCC1` the Kd was > 4 mM (inactive).

For `O=S1(=O)C=CC(Nc2ccccc2)C1` (stereo not given), the Kd was > 4 mM (inactive).

`O=C(O)c1ccc(-c2cccs2)cc1` was tested, and the Kd was > 4 mM (inactive).

In the case of `Cc1ccc(-c2nn3c(C)nnc3s2)cc1N`, the Kd is reported as > 4 mM (inactive).

In the case of `CC(=O)C1CC[C@H]2C3CC[C@H]4C[C@H](O)CC[C@]4(C)C3CC[C@]12C` (stereo not given in full), the Kd is reported as > 4 mM (inactive).

`O=C1CCCC(=O)N1Cc1ccco1` was tested, and the Kd was > 4 mM (inactive).

For `CC(C)(O)P(C)(=O)c1ccccc1` (stereo not given), the Kd was > 4 mM (inactive).

With `C(=N\c1ncn[nH]1)/c1cccs1` the Kd was > 4 mM (inactive).

In the case of `COc1cc(O)cc(/C=C/c2ccccc2)c1`, the Kd is reported as > 4 mM (inactive).

`O=C(O)CC12CC3CC(CC(O)(C3)C1)C2` was tested, and the Kd was > 4 mM (inactive).

`O=C(Nc1cnc2ccccn2c1=O)c1ccc(F)cc1` was tested, and the Kd was > 4 mM (inactive).

In the case of `CN(C)C(=O)N1CCN(C(=O)c2ccco2)CC1`, the Kd is reported as > 4 mM (inactive).

In the case of `NC(=O)CCn1c(=O)oc2ccccc21`, the Kd is reported as > 4 mM (inactive).

In the case of `CCOC(=O)C1C(=O)C2CCN1CC2` (stereo not given), the Kd is reported as > 4 mM (inactive).

For `COc1cccc(NC(=O)c2ocnc2C)c1`, the Kd was > 4 mM (inactive).

In the case of `O=C(O)C1(S(=O)(=O)c2ccccc2)CC1`, the Kd is reported as > 4 mM (inactive).

With `NC(=O)c1ccc2c(c1)OCO2` the Kd was > 4 mM (inactive).

`CN1C2CC(OC(=O)[C@H](CO)c3ccccc3)C[C@H]1[C@H]1OC21` (stereo not given in full) was tested, and the Kd was > 4 mM (inactive).

With `CN1CCN(C(=O)Nc2cccc3ccccc23)CC1` the Kd was > 4 mM (inactive).

For `Nc1ncnc2nc(SCCN3CCCCC3)[nH]c12`, the Kd was > 4 mM (inactive).

In the case of `Cc1c(/C=N\n2cnnc2)c2ccccc2n1C`, the Kd is reported as > 4 mM (inactive).

`O=C(c1ccc2c(c1)OCO2)N1CCC2(CC1)OCCO2` was tested, and the Kd was > 4 mM (inactive).

`O=C(Nc1ccccc1CO)c1ccccc1F` was tested, and the Kd was > 4 mM (inactive).

With `Cc1c(C)c2c(c(C)c1O)CCC(C)(CCCC(C)CCCC(C)CCCC(C)C)O2` (stereo not given) the Kd was > 4 mM (inactive).

In the case of `NC(=O)CN1CCC(c2nc3ccccc3[nH]2)CC1`, the Kd is reported as > 4 mM (inactive).

With `O=c1sc2ccccc2n1CN1CCOCC1` the Kd was > 4 mM (inactive).

`COc1ccccc1-c1noc(-c2ccco2)n1` was tested, and the Kd was > 4 mM (inactive).

In the case of `O=C1NC(=O)C(=Cc2cccs2)C(=O)N1`, the Kd is reported as > 4 mM (inactive).

With `Cc1occc1C(=O)Nc1ccc2c(c1)OCO2` the Kd was > 4 mM (inactive).

In the case of `O=S(=O)(NCc1ccco1)N1CCOCC1`, the Kd is reported as > 4 mM (inactive).

In the case of `CNc1nc(OC)nc(N2CCOCC2)n1`, the Kd is reported as > 4 mM (inactive).

In the case of `CC(=O)c1cccc(NC(=O)C=C(C)C)c1`, the Kd is reported as > 4 mM (inactive).

`CCCCCc1c2c(cc(O)c1C(=O)O)OC(=O)c1c(cc(OC)cc1C(=O)CCCC)O2` was tested, and the Kd was > 4 mM (inactive).

With `CCCCCCCCCCCCCCC(C(=O)O)C(O)(CC(=O)OC)C(=O)O` (stereo not given) the Kd was > 4 mM (inactive).

For `Nc1cccc2nsnc12`, the Kd was > 4 mM (inactive).

`O=c1c(O)c(-c2ccccc2)oc2cc(O)ccc12` was tested, and the Kd was > 4 mM (inactive).

In the case of `COc1cc(/C=C2\SC(=S)NC2=O)ccc1O`, the Kd is reported as > 4 mM (inactive).

In the case of `O=C(CC1CCCCC1)N1CCN(c2ccccn2)CC1`, the Kd is reported as > 4 mM (inactive).

With `CNc1nc(SC)nc(N2CCOCC2)n1` the Kd was > 4 mM (inactive).

In the case of `CCCCCCCCCCCCCCCCCCOCC(O)CO` (stereo not given), the Kd is reported as > 4 mM (inactive).

In the case of `NC(=O)c1ccsc1NC(=O)c1ccccc1[N+](=O)[O-]`, the Kd is reported as > 4 mM (inactive).

`CCOC(=O)c1c(C)nc2sccn12` was tested, and the Kd was > 4 mM (inactive).

With `CCOC(=O)c1c(C)[nH]c2ccc(O)cc12` the Kd was > 4 mM (inactive).

With `Cc1csc2nc(=O)c3ccccc3n12` the Kd was > 4 mM (inactive).

`NC(N)=NOCC[C@H](N)C(=O)O` was tested, and the Kd was > 4 mM (inactive).

In the case of `O=c1cc(-c2ccc(O)cc2)[nH]c(=S)[nH]1`, the Kd is reported as > 4 mM (inactive).

`O=C1c2cccnc2C(=O)N1Cc1ccco1` was tested, and the Kd was > 4 mM (inactive).

With `COC(=O)c1cc(-c2c(C)nn(-c3ccccc3)c2C)n[nH]1` the Kd was > 4 mM (inactive).

For `Cc1ccc(C(=O)Nc2nnc(-c3ccncc3)s2)o1`, the Kd was > 4 mM (inactive).

`OCC(O)Cc1ccc2c(c1)OCO2` (stereo not given) was tested, and the Kd was > 4 mM (inactive).

In the case of `CC(=O)c1c(C)nc(-c2cccs2)n1O`, the Kd is reported as > 4 mM (inactive).

`COc1c(O)cc2c(-c3ccccc3)cc(=O)oc2c1OC` was tested, and the Kd was > 4 mM (inactive).

In the case of `c1cncc(C2CCCCN2)c1` (stereo not given), the Kd is reported as > 4 mM (inactive).

For `COc1c(-c2coc3cc4c(cc3c2=O)CC(O)C(C)(C)O4)ccc2c1C=CC(C)(C)O2` (stereo not given), the Kd was > 4 mM (inactive).

`c1ccc(-c2csc3ncn4nnnc4c23)cc1` was tested, and the Kd was > 4 mM (inactive).

With `CCc1noc(C)c1C(=O)Nc1ncc(C)s1` the Kd was > 4 mM (inactive).

Reference: PubChem BioAssay AID1549 (Sanford-Burnham Center for Chemical Genomics, 2009)
